Measured values taken from paper PMC7018657, “Molecular Determinants of Substrate Selectivity of a Pneumococcal Rgg-Regulated Peptidase-Containing ABC Transporter” (mBio, 2020).
Where no end group is shown, it is not given here.

What was measured:
[1] = target: T1, D39 PrtgS1-luc (rtg locus) (Streptococcus pneumoniae, UniProt A0ACD7PPC8); assay: RtgS dose-response assay, PrtgS1-luc reporter, D39 ΔrtgS1 ΔrtgS2; format: cell-based; settings: CDM+; for Maximal response: mean ± SE from Hill fit, 3 independent experiments, max PrtgS1 activity within 60 min / 120 min (methods)
T1 sequence (A0ACD7PPC8 1-287): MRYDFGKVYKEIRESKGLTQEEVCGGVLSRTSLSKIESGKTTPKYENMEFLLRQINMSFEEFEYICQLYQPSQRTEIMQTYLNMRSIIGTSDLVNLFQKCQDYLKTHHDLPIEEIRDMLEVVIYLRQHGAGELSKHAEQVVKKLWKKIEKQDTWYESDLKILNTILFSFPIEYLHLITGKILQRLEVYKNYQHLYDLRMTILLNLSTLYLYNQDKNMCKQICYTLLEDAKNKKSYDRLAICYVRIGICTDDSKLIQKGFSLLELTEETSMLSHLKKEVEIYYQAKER
Experimental: (§1) FIG 2 The Rgg/SHP-like RtgR/RtgS system regulates rtg. (A) rtgR and rtgS1 are required for rtg activation in Sp9-BS68. Sp9-BS68 PrtgS1-luc reporters were grown in CDM+ or THY and monitored for rtg activation (dark, left y axis) and cell density (light, right y axis). Plots show medians (lines) and 25% to 75% quantiles (shading) from 12 wells pooled from 3 independent experiments. (B) Translated rtgS gene products from Sp9-BS68 and D39. The type-defining residues are highlighted in red. (C) rtgS1 but not rtgS2 is required for rtg activation in D39. D39 PrtgS1-luc reporters were grown in CDM+ and monitored for rtg activation (dark, left y axis) and cell density (light, right y axis). Plots show medians (lines) and 25% to 75% quantiles (shading) from 30 wells pooled from 3 independent experiments. C-terminal fragments of RtgSA induce rtg in an RtgR-dependent manner. Sp9-BS68 PrtgS1-luc reporters were grown in CDM+ and THY (D) or CDM+ only (E) to an OD620 of 0.02 and treated with synthetic RtgSA fragments. Response was defined as the maximum observed PrtgS1 activity within 60 min of treatment. Data in panel D were fitted to the four-parameter Hill model (curves). Plotted data points represent means ± SEs from 3 independent experiments. […] A D39 ΔrtgS1 ΔrtgS2 PrtgS1-luc reporter was grown in CDM+ to an OD620 of 0.02 and treated with synthetic RtgS fragments. Response was defined as the maximum observed PrtgS1 activity within 60 min of treatment. Data were fitted to the four-parameter Hill model (curves). Plotted data points represent means ± SEs from 3 independent experiments. […] A D39 ΔrtgS1 ΔrtgS2 PrtgS1-luc reporter was grown in CDM+ to an OD620 of 0.02 and treated simultaneously with 2 nM RtgSA-C10 and various concentrations of RtgSB-C10. Response was defined as the maximum observed PrtgS1 activity within 120 min of treatment. Plotted data points represent means ± SEs from 3 independent experiments. **, P < 0.01; ***, P < 0.001 versus 0 nM RtgSB-C10 by ANOVA with Dunnett’s correction for multiple comparisons.
(§2) All strains were derived from Sp9-BS68 ([36]), D39, or the R6 strain P654 (referred to as PSD100 in reference) (see Table S1 and methods in Text S1 in the supplemental material for details). […] Pneumococcus was grown in either filter-sterilized THY (Todd Hewitt broth plus 0.5% yeast extract) or CDM+ (see methods in Text S1) ([38]) at 37°C. All media contained 5 μg/ml catalase. All CDM+ was supplemented with 0.5% (vol/vol) THY. Except where noted otherwise, pneumococcal cultures used for experiments were inoculated to an OD620 of 0.0015 from starter cultures grown in THY (pH 7.4) to an OD620 of 0.275 and frozen at −80°C in 13% glycerol. Starter cultures were pelleted at 6,000 × g for 5 min at room temperature and resuspended in the appropriate growth medium for the experiment before being used for inoculation. Antibiotics were used at the following concentrations: chloramphenicol, 2 μg/ml; gentamicin, 200 μg/ml; kanamycin, 500 μg/ml; spectinomycin, 200 μg/ml; streptomycin, 100 μg/ml.
(§3) Cells expressing PrtgS1-luc reporters were grown in THY or CDM+ containing 330 μM firefly luciferin. […] The plate was then incubated in a Synergy HTX plate reader set to read absorbance at 620 nm and luminescence every 5 min. For D39 strains only, the plate was shaken before readings were taken. PrtgS1 activity was calculated, and the response was defined as the maximum observed PrtgS1 activity within 60 min (Sp9-BS68) or 120 min (D39) of treatment. […]

[2] = test system: Sp9-BS68 PrtgS1-luc in ΔpptAB and ΔamiCD mutants; assay: Response of ΔpptAB and ΔamiCD PrtgS1-luc reporters to exogenous RtgS; format: cell-based, Streptococcus pneumoniae Sp9-BS68; settings: CDM+, RtgSA-C10 at OD620 0.02, max within 60 min, 3 independent experiments
Experimental: Supplementary file : FIG S1 Ami and PptAB are required for RtgR/S signaling. (A) Both Ami and PptAB are required for natural rtg autoinduction. Sp9-BS68 PrtgS1-luc reporters were grown in CDM+ and monitored for rtg activation (dark, left y axis) and cell density (light, right y axis). Plots show medians (lines) and 25% to 75% quantiles (shading) from 30 wells per strain pooled from 3 independent experiments. […] Sp9-BS68 PrtgS1-luc reporters were grown in CDM+ to an OD620 of 0.02 and treated with RtgSA-C10. Response was defined as the maximum observed PrtgS1 activity within 60 min of treatment. Plotted data points represent means ± SEs from 3 independent experiments. Download FIG S1, PDF file, 0.6 MB.
as §3, with “luciferin. At an OD620 of 0.02, cultures were aliquoted into a white, clear-bottom 96-well plate (655098; Greiner Bio-One), 100 μl per well.” for “luciferin.”

[3] = test system: Sp9-BS68 rtgS1 promoter (PrtgS1-luc; RtgR-dependent); assay: RtgS dose-response assay, PrtgS1-luc reporter, Sp9-BS68 ΔrtgS1; format: cell-based, Streptococcus pneumoniae Sp9-BS68; settings: for induction of rtgS1 promoter: Sp9-BS68 PrtgS1-luc, CDM+ and THY; for Maximal response / EC50: Sp9-BS68 ΔrtgS1, mean ± SE from Hill fit, 3 independent experiments, max PrtgS1 activity within 60 min; for EC50: synthetic peptide added at OD620 0.02, luminescence, 37°C
Experimental: as §1, §2
Cells expressing PrtgS1-luc reporters were grown in THY or CDM+ containing 330 μM firefly luciferin. At an OD620 of 0.02, cultures were aliquoted into a white, clear-bottom 96-well plate (655098; Greiner Bio-One), 100 μl per well. Each well of the plate was prefilled with 100 μl sterile medium containing 0.5% (vol/vol) dimethyl sulfoxide (DMSO), 330 μM firefly luciferin, and appropriate concentrations of synthetic RtgS peptide (Genscript). The plate was then incubated in a Synergy HTX plate reader set to read absorbance at 620 nm and luminescence every 5 min. For D39 strains only, the plate was shaken before readings were taken. PrtgS1 activity was calculated, and the response was defined as the maximum observed PrtgS1 activity within 60 min (Sp9-BS68) or 120 min (D39) of treatment. When applicable, curves were fit to a Hill model using the nls() function in R 3.5.1.

[4] = target: T1, D39 PrtgS1-luc (rtg locus); assay: Competitive dose-response assay of RtgSB-C10 against RtgSA-C10, D39 ΔrtgS1 ΔrtgS2 PrtgS1-luc; format: cell-based; settings: CDM+
Experimental: FIG 2 The Rgg/SHP-like RtgR/RtgS system regulates rtg. (A) rtgR and rtgS1 are required for rtg activation in Sp9-BS68. Sp9-BS68 PrtgS1-luc reporters were grown in CDM+ or THY and monitored for rtg activation (dark, left y axis) and cell density (light, right y axis). Plots show medians (lines) and 25% to 75% quantiles (shading) from 12 wells pooled from 3 independent experiments. (B) Translated rtgS gene products from Sp9-BS68 and D39. The type-defining residues are highlighted in red. (C) rtgS1 but not rtgS2 is required for rtg activation in D39. D39 PrtgS1-luc reporters were grown in CDM+ and monitored for rtg activation (dark, left y axis) and cell density (light, right y axis). Plots show medians (lines) and 25% to 75% quantiles (shading) from 30 wells pooled from 3 independent experiments. C-terminal fragments of RtgSA induce rtg in an RtgR-dependent manner. […]
as §3

Sequence	rtg induction / type of agonism [1]	Maximal response [1]	rescue of rtg activation by exogenous RtgS [2]	induction of rtgS1 promoter [3]	Maximal response ([3]; CDM+)	EC50 ([3]; CDM+)	Maximal response ([3]; THY)	EC50 ([3]; THY)	EC50 value larger than that of RtgSA-C10 (ratio) ([1]; versus RtgSA-C10)	antagonism of RtgSA-C10 ([4]; high concentrations with 2 nM RtgSA-C10, 3 independent experiments)	concentration antagonizing RtgSA-C10 ([4]; simultaneous with 2 nM RtgSA-C10, max PrtgS1 activity within 120 min, 3 independent experiments)
AIIFPWGWPI [RtgSA-C10]	induces rtg similarly to Sp9-BS68	75.1 ± 8.1 10^3 RLU·min^−1·OD620^−1	rescues rtg activation defect in the ΔpptAB mutant but not the ΔamiCD mutant	induced expression from the Sp9-BS68 rtgS1 promoter in both CDM+ and THY	205.7 ± 9.1 10^3 RLU·min^−1·OD620^−1	1.63 ± 0.19 nM	232.4 ± 14.3 10^3 RLU·min^−1·OD620^−1	47.4 ± 6.9 nM			
AIIFPWGWSI [RtgSB-C10]	partial agonist	21.2 ± 1.5 10^3 RLU·min^−1·OD620^−1							55 fold	antagonize RtgSA-C10	≥ 256 nM
IFPWGWPI [RtgSA-C8]				induced expression from the Sp9-BS68 rtgS1 promoter in both CDM+ and THY	212.2 ± 9.4 10^3 RLU·min^−1·OD620^−1	2.53 ± 0.25 nM	229.7 ± 8.6 10^3 RLU·min^−1·OD620^−1	184 ± 15 nM			
SLAIIFPWGWPI [RtgSA-C12]				induced expression from the Sp9-BS68 rtgS1 promoter in both CDM+ and THY	213.9 ± 8.0 10^3 RLU·min^−1·OD620^−1	3.51 ± 0.28 nM	210.1 ± 13.1 10^3 RLU·min^−1·OD620^−1	315 ± 42 nM			
